From the supplement of paper PMC10307832 come the findings set out here.

Test in all cases: relative viability (nuclei count vs DMSO), 5 days (fraction); higher = more cells survive
Compound in assay [1]: C[C@@H](N)c1ccc(C(=O)Nc2ccnc3[nH]ccc23)cc1 + Nc1nc2[nH]cc(CCc3ccc(C(=O)N[C@@H](CCC(=O)O)C(=O)O)cc3)c2c(=O)[nH]1 [Pemetrexed] (partner 0.2 µM)
In short, it runs like this: (§1)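 Five library-drug doses in √10 steps were combined with a fixed anchor-drug dose, or a single drug was given alone, by pin tool to lung cancer cell lines in 1536-well plates the day after seeding. Nuclei were stained and counted after 5 days. Relative viability is the nuclei count in treated wells over that in vehicle wells, taken as the median of duplicate plates.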

Compound in assay [2]: C[C@@H](N)c1ccc(C(=O)Nc2ccnc3[nH]ccc23)cc1 + CC1(C)CCC(c2ccc(Cl)cc2)=C(CN2CCN(c3ccc(C(=O)NS(=O)(=O)c4ccc(N[C@H](CCN5CCOCC5)CSc5ccccc5)c(S(=O)(=O)C(F)(F)F)c4)cc3)CC2)C1 [Navitoclax] (partner 0.5 µM)
A digest of the protocol:
as §1

Compound in assay [3]: C[C@@H](N)c1ccc(C(=O)Nc2ccnc3[nH]ccc23)cc1 + CC(=O)c1c(C)c2cnc(Nc3ccc(N4CCNCC4)cn3)nc2n(C2CCCC2)c1=O [Palbociclib] (partner 0.5 µM)
A digest of the protocol: as §1

Compound in assay [4]: C1CNCCC1C2=CC(=NN2)C3=CC=NC=C3 + Cc1nc(Nc2ncc(C(=O)Nc3c(C)cccc3Cl)s2)cc(N2CCN(CCO)CC2)n1 [Dasatinib] (partner 0.075 µM)
A digest of the protocol: as §1

Turning to NCI-H3122, the relative viability in assay [1] (first compound 0.04 µM) came out at 0.202; in assay [1] (first compound 0.1265 µM), 0.216; in assay [1] (first compound 0.4 µM), 0.203; in assay [1] (first compound 1.265 µM), 0.21; in assay [1] (first compound 4 µM), 0.222; in assay [2] (first compound 0.04 µM), 1.05. In addition, the relative viability in assay [2] (first compound 0.1265 µM) worked out at 1.01; in assay [2] (first compound 0.4 µM), 0.981; in assay [2] (first compound 1.265 µM), 0.976; in assay [2] (first compound 4 µM), 0.989; in assay [3] (first compound 0.04 µM), 0.221; in assay [3] (first compound 0.1265 µM), 0.188. The relative viability in assay [3] (first compound 0.4 µM) is 0.23; in assay [3] (first compound 1.265 µM), 0.243; in assay [3] (first compound 4 µM) it was 0.221; in assay [4] (first compound 0.08 µM) it was 0.605; in assay [4] (first compound 0.8 µM), 0.879; in assay [4] (first compound 2.53 µM), 0.983. Further, in assay [4] (first compound 8 µM), the relative viability stood at 0.859.
For PC-3 [JPC-3], the relative viability in assay [1] (first compound 0.04 µM) was 1.12; in assay [1] (first compound 0.1265 µM), 1.07; in assay [1] (first compound 0.4 µM), 1.16; in assay [1] (first compound 1.265 µM) it was 1.07; in assay [1] (first compound 4 µM) it was 0.88; in assay [2] (first compound 0.04 µM), 0.833. Besides, the relative viability in assay [2] (first compound 0.1265 µM) is 0.866; in assay [2] (first compound 0.4 µM) it was 0.907; in assay [2] (first compound 1.265 µM), 0.897; in assay [2] (first compound 4 µM), 0.798; in assay [3] (first compound 0.04 µM), 0.544; in assay [3] (first compound 0.1265 µM), 0.516. In addition, the relative viability was 0.53 in assay [3] (first compound 0.4 µM); 0.551 in assay [3] (first compound 1.265 µM); 0.575 in assay [3] (first compound 4 µM); 0.982 in assay [4] (first compound 0.08 µM); 1.1 in assay [4] (first compound 0.8 µM); 1.01 in assay [4] (first compound 2.53 µM). Further, the relative viability in assay [4] (first compound 8 µM) worked out at 0.966.
Take PC-14: the relative viability was found to be 0.139 in assay [1] (first compound 0.04 µM); 0.126 in assay [1] (first compound 0.1265 µM); 0.138 in assay [1] (first compound 0.4 µM); 0.169 in assay [1] (first compound 4 µM); 0.963 in assay [2] (first compound 0.04 µM); 1.04 in assay [2] (first compound 0.1265 µM). Also, the relative viability in assay [2] (first compound 0.4 µM) came out at 0.984; in assay [2] (first compound 1.265 µM), 0.935; in assay [2] (first compound 4 µM) it was 0.808; in assay [3] (first compound 0.04 µM) it was 0.552; in assay [3] (first compound 0.1265 µM), 0.537; in assay [3] (first compound 0.4 µM) it was 0.483. The relative viability in assay [3] (first compound 4 µM) worked out at 0.367; in assay [4] (first compound 0.08 µM), 0.245; in assay [4] (first compound 0.8 µM) it was 0.272; in assay [4] (first compound 2.53 µM) it was 0.296; in assay [4] (first compound 8 µM) it was 0.221.
Turning to RERF-LC-KJ, the relative viability in assay [1] (first compound 0.04 µM) came to 0.496; in assay [1] (first compound 0.1265 µM) it was 0.486; in assay [1] (first compound 0.4 µM) it was 0.472; in assay [1] (first compound 1.265 µM), 0.47; in assay [1] (first compound 4 µM) it was 0.424; in assay [2] (first compound 0.04 µM) it was 0.962. The relative viability was 0.99 in assay [2] (first compound 0.1265 µM); 1.42 in assay [2] (first compound 0.4 µM); 1.1 in assay [2] (first compound 1.265 µM); 0.95 in assay [2] (first compound 4 µM); 1.05 in assay [3] (first compound 0.04 µM); 1.12 in assay [3] (first compound 0.1265 µM). The relative viability in assay [3] (first compound 0.4 µM) was 1.22; in assay [3] (first compound 1.265 µM), 1.23; in assay [3] (first compound 4 µM), 0.943; in assay [4] (first compound 0.08 µM), 0.795; in assay [4] (first compound 0.8 µM), 0.934; in assay [4] (first compound 2.53 µM) it was 0.893. Further, the relative viability in assay [4] (first compound 8 µM) stood at 0.778.
In the case of SK-LU-1, the relative viability in assay [1] (first compound 0.04 µM) worked out at 0.952; in assay [1] (first compound 0.1265 µM), 0.892; in assay [1] (first compound 0.4 µM), 0.933; in assay [1] (first compound 1.265 µM), 0.809; in assay [1] (first compound 4 µM) it was 0.558; in assay [2] (first compound 0.04 µM) it was 0.922. Also, the relative viability came out at 0.786 in assay [2] (first compound 0.1265 µM); 0.778 in assay [2] (first compound 0.4 µM); 0.633 in assay [2] (first compound 1.265 µM); 0.503 in assay [2] (first compound 4 µM); 0.42 in assay [3] (first compound 0.04 µM); 0.44 in assay [3] (first compound 0.1265 µM). Also, the relative viability in assay [3] (first compound 0.4 µM) was found to be 0.465; in assay [3] (first compound 1.265 µM) it was 0.273; in assay [3] (first compound 4 µM) it was 0.338; in assay [4] (first compound 0.08 µM) it was 0.156; in assay [4] (first compound 0.8 µM), 0.181; in assay [4] (first compound 2.53 µM) it was 0.206. The relative viability in assay [4] (first compound 8 µM) was found to be 0.166.
With SK-MES-1, the relative viability was determined as 0.901 in assay [1] (first compound 0.04 µM); 0.964 in assay [1] (first compound 0.1265 µM); 0.906 in assay [1] (first compound 0.4 µM); 0.887 in assay [1] (first compound 1.265 µM); 0.877 in assay [1] (first compound 4 µM); 1.4 in assay [2] (first compound 0.04 µM). Also, the relative viability in assay [2] (first compound 0.1265 µM) was found to be 1.39; in assay [2] (first compound 0.4 µM), 1.34; in assay [2] (first compound 1.265 µM), 1.33; in assay [2] (first compound 4 µM), 1.14; in assay [3] (first compound 0.04 µM) it was 0.312; in assay [3] (first compound 0.1265 µM), 0.365. For the same cell line, the relative viability in assay [3] (first compound 0.4 µM) was 0.306; in assay [3] (first compound 1.265 µM), 0.337; in assay [3] (first compound 4 µM), 0.271; in assay [4] (first compound 0.08 µM) it was 0.424; in assay [4] (first compound 0.8 µM), 0.221; in assay [4] (first compound 2.53 µM) it was 0.465. In addition, the relative viability in assay [4] (first compound 8 µM) was found to be 0.368.
In the case of SW 1573, the relative viability in assay [1] (first compound 0.04 µM) worked out at 0.792; in assay [1] (first compound 0.1265 µM) it was 0.792; in assay [1] (first compound 0.4 µM), 0.845; in assay [1] (first compound 1.265 µM), 0.582; in assay [1] (first compound 4 µM), 0.703; in assay [2] (first compound 0.04 µM), 1.14. Moreover, the relative viability in assay [2] (first compound 0.1265 µM) came out at 0.927; in assay [2] (first compound 0.4 µM), 1.12; in assay [2] (first compound 1.265 µM) it was 0.774; in assay [2] (first compound 4 µM), 0.426; in assay [3] (first compound 0.04 µM), 0.491; in assay [3] (first compound 0.1265 µM) it was 0.416. Moreover, the relative viability in assay [3] (first compound 0.4 µM) is 0.385; in assay [3] (first compound 1.265 µM), 0.356; in assay [3] (first compound 4 µM) it was 0.341; in assay [4] (first compound 0.8 µM), 0.647; in assay [4] (first compound 2.53 µM) it was 0.658; in assay [4] (first compound 8 µM), 0.486.
